Laboratory results from US20240369536A1, “A CELL BASED TEST TO MONITOR DMARD DRUG RESPONSE” (UNIVERSITY OF ULSTER, priority 2021, published 2024).
“Also recorded” adds a separate entry of the source.

What was measured:
[1] = tested on: CD4+CD25+CD127− Treg cells; test: FACS analysis of CD4, NFκB and FoxP3 in expanded Tregs stimulated with PMA with or without Sia; format: cell-based, human
From the text: PBMCs were labelled with antibodies (Becton Dickinson®, UK) against CD3, CD4, CD25, CD45, CD45RA, CD127 and CD43 antigens according to the manufacturer's instructions to assess relative Treg numbers. When FoxP3 and nuclear factor kappa-light-chain-enhancer of activated B cells (NFκB) antibody labelling was required, cells were pretreated with a lymphocyte membrane permeabilising solution (BD FACS™ Permeabilizing solution 2; Becton Dickinson®, UK). For monocyte analysis, cells were firstly enriched using a pan monocyte isolation kit and benchtop magnetic cell sorting device (autoMACS Pro separator; Miltenyi Biotec®). Enriched monocytes were labelled with antibodies (Becton Dickinson®, UK) against CD14, CD16 and CD169 antigens. Cell populations were analysed using fluorescence-activated cell sorting (FACS) in a flow cytometer with sorting capability (FACSAria™ III; Becton Dickinson, UK) with appropriate flow cytometer software (BD FACSDiva™ software version 8.0.1; Becton Dickinson, UK). Negative controls including unlabelled cells and isotype matched control antibodies were used to determine gating strategies. The positivity of a specific cell surface marker in labelled samples compared to the negative control was analysed as a percentage of the parent population. The median fluorescence intensity (MFI), indicating cell surface density of a specific marker, was also noted for cell populations. Mann Whitney tests were used to assess the statistical significance of differences between sample groups and graphs depict median values with error bars representing the interquartile range.
CD4^+CD25^+CD127^− Treg cells were sorted by FACS into phosphate buffered saline (PBS) containing 20% AB serum (Sigma-Aldrich®, UK), then washed and resuspended in serum-free cell culture medium (TexsMACS™ medium; Miltenyi Biotec®, UK), supplemented with 5% AB serum (Sigma-Aldrich®, UK), 1% Penicillin-Streptomycin (Gibco®, Ireland) and human IL-2 (Miltenyi Biotec®, UK). Trypan blue (Sigma-Aldrich®, UK) was used to ensure cell viability after sorting was >90-95%. A human Treg expansion kit (Miltenyi Biotec, UK) was used to induce Treg proliferation in order to expand the population to sufficient cell numbers for experiments. Following 14 days of expansion, Tregs were stimulated with 10 ng/ml phorbol 12-myristate 13-acetate (PMA) (Sigma-Aldrich®, UK) and 500 ng/ml ionomycin (10) (Invitrogen®) for 24 hours. During the same 24-hour stimulation, Tregs were incubated with or without 10 mM sialic acid (Sia) (Sigma-Aldrich®, UK). […] Cell culture conditioned media was retained and analysed for secreted cytokine levels by enzyme-linked immunosorbent assay (ELISA), described below. […]

[2] = tested on: CD4+CD25+CD127− Treg cells; test: ELISA of secreted cytokines (TNFα, IL-10, IFNγ) in conditioned media of Treg cultures; format: cell-based, human; conditions: PMA relative to controls
From the text: CD4^+CD25^+CD127^− Treg cells were sorted by FACS into phosphate buffered saline (PBS) containing 20% AB serum (Sigma-Aldrich®, UK), then washed and resuspended in serum-free cell culture medium (TexsMACS™ medium; Miltenyi Biotec®, UK), supplemented with 5% AB serum (Sigma-Aldrich®, UK), 1% Penicillin-Streptomycin (Gibco®, Ireland) and human IL-2 (Miltenyi Biotec®, UK). Trypan blue (Sigma-Aldrich®, UK) was used to ensure cell viability after sorting was >90-95%. A human Treg expansion kit (Miltenyi Biotec, UK) was used to induce Treg proliferation in order to expand the population to sufficient cell numbers for experiments. Following 14 days of expansion, Tregs were stimulated with 10 ng/ml phorbol 12-myristate 13-acetate (PMA) (Sigma-Aldrich®, UK) and 500 ng/ml ionomycin (10) (Invitrogen®) for 24 hours. During the same 24-hour stimulation, Tregs were incubated with or without 10 mM sialic acid (Sia) (Sigma-Aldrich®, UK). At baseline, 24 hr and 48 hr time points (Day 0, Day 1 and Day 2), cells were removed from culture and labelled prior to FACS analysis of extracellular markers CD4, CD25, CD127 and CD43, and intracellular markers NFκB and FoxP3. Cell culture conditioned media was retained and analysed for secreted cytokine levels by enzyme-linked immunosorbent assay (ELISA), described below. A preliminary experiment included a Day 2 time-point, however latter experiments were concluded at the Day 1 time-point as this was sufficient to observe Sia treatment effects. […]
Following cell culture experiments, conditioned media were analysed to quantify TNFα, IL-10 and IFN-γ by ELISA using appropriate ELISA reagent kits (DuoSet® ELISA development kits; R&D Systems®, UK) according to the manufacturer's instructions. The optical density (OD) was determined using a spectrophotometer (Epoch™ microplate spectrophotometer; BioTek® Ltd, UK) with appropriate software (Gen5™; BioTek® Ltd, UK). The plate was read at a wavelength of 450 nm and wavelength correction of OD at 540 nm used. […]

Row | Compound | effect on NFκB Tregs ([1]; 10 mM Sia added to PMA-stimulated Tregs, after 2 days) | CD4 cell-surface expression (percentage of CD4 positivity) ([1]; 10 ng/ml PMA + 500 ng/ml ionomycin, compared to CTL cells without stimulation) | percentage of cells with intracellular expression of FoxP3 ([1]; PMA stimulation, both CD43+ and CD43− Tregs, each time point, p<0.01) | percentage of cells with intracellular expression of NFκB ([1]; PMA stimulation, both CD43+ and CD43− Tregs, each time point, p<0.05) | IFNγ levels secreted into media ([2]; Day 1, p<0.01) | levels of IL-10 secreted into media ([2]; Day 1 and Day 2, p<0.05) | levels of TNFα secreted into media ([2]; Day 1 and Day 2, p<0.05)
1 | CC(=O)N[C@H]1[C@H]([C@H](O)[C@H](O)CO)OC(O)(C(=O)O)C[C@@H]1O (stereo partly shown) [Sia, sialic acid] | no significant effect |  |  |  |  |  | 
2 | CCCCCCCCCCCCCC(=O)O[C@@H]1[C@@H](C)[C@@]2(O)[C@@H](C=C(CO)C[C@]3(O)C(=O)C(C)=C[C@@H]23)[C@@H]2C(C)(C)[C@]12OC(C)=O [PMA, phorbol 12-myristate 13-acetate] |  | reduced; also recorded: reduction | increased | increased | significantly higher | significantly increased | significantly increased
